# Results: patent publication US12662530B2, “Anti-ADM-antibodies binding to the free N-terminus for accelerated transition of ADM-Gly to bio-ADM in patients with ADM-Gly/ bio-ADM ratio above a threshold and combination with vitamin C” (SphingoTec GmbH, priority 2020, dated 2026)
# Where two headings read alike, the source gives them in different places.
# Columns and labels:
# recombinant human PAM = experiment: Formation of bio-ADM from ADM-Gly by recombinant human PAM; format: biochemical
# Method: The formation of bio-ADM from c-terminally glycinated 1-53 Adrenomedullin (ADM-Gly) by recombinant human PAM and the influence of the N-terminal anti-Adrenomedullin antibodies on the bio-ADM formation from ADM-Gly by PAM was investigated.
# In a first step, 200 μl per well ADM-Gly (50 ng/mL) dissolved in buffer (300 mM potassium-phosphate, 100 mM NaCl, 10 mM Na-EDTA, 5 g/L BSA, pH 7.0) was added to microtiter plate wells that were precoated with an anti-MR-ADM antibody, and were incubated for 1 h at 22° C. under agitation (600 rpm). Unbound material was removed by washing. In a second step, varying concentrations (0-100 μg/mL) of either N-terminal- (HAM8101), C-terminal anti-Adrenomedullin antibody specifically blocking the glycinated C-terminus of ADM-Gly or an unspecific antibody (control antibody) was added to the wells (200 μl per well) for 1 h at 22° C. under agitation (600 rpm). The respective antibodies were diluted in buffer as described above. Unbound antibodies were removed by washing. […] After a final washing step, the remaining chemiluminescence was measured for 1 s per well with a Centro LB 960 microtiter plate luminescence reader (Berthold Technologies). To evaluate the velocity of the enzyme PAM, the signal for bio-ADM measured at t=0 minutes was subtracted from the signal for bio-ADM at t=40 minutes for each antibody concentration. […]
# native human plasma PAM = experiment: Formation of bio-ADM by native human PAM in Li-Heparin plasma, with and without exogenous ADM-Gly; format: biochemical; details: without addition of exogenous ADM-Gly; HAM8101 300 μg/mL; 90 minutes
# Method: In a further experiment we investigated the formation of bio-ADM from ADM-Gly by native human plasma PAM and the influence of N-terminal- and mid-regional anti-adrenomedullin antibodies.
# Human Li-Heparin plasma (pool of 3 specimen) was used as source of human native PAM. The amidation reaction was performed in a total volume of 120 μl at 37° C. 96 μl of plasma were spiked with either HAM8101 (375 μg/mL final concentration) or ADM-Gly (5 ng/mL final concentration) or with both. As control, equal volumes of 100 mM Tris-HCl, pH 7.5 were added to untreated plasma. The prepared samples were allowed to chill for 15 minutes at room temperature. The amidation reaction was started by addition of 24 μl of PAM-reaction buffer resulting in final concentrations of 2 mM L-Ascorbate and 5 μM CuSO4, respectively. The final concentrations of HAM8101 and ADM-Gly were 300 μg/mL and 4 ng/mL, respectively. The reaction was allowed to proceed for 90 minutes at 37° C. After 0 min, 30 min, 60 min and 90 min of incubation, the reaction was stopped by addition of 20 mM EDTA (final concentration). The concentration of bio-ADM in the reaction sample was quantified using the Sphingotest® bio-ADM immunoassay as described recently (Weber et al. 2017. JALM 2(2): 222-233).
# human native PAM = experiment: Native human PAM activity in human serum with NT- and MR-anti-ADM antibodies; format: biochemical; details: antibody 100 μg/mL; FIG. 9
# Method: Human serum was used as source of human native PAM. Each sample (20 μl) was diluted two-fold in 100 mM Tris-HCl in duplicate. The amidation reaction was initiated by addition of 160 μl of NT-ADM antibodies (HAM8101, AK1373, AK1388, AK1398 or AK1434) or MR-ADM antibodies (ADM43, ADM38, ADM41, ADM2901, ADM2902 and ADM2903) containing PAM-reaction buffer (100 mM Tris-HCl, pH 7.5, 6.25 μM CuSO4, 2.5 mM Ascorbate, 125 μg/mL Catalase, 62.5 μM Amastatin, 250 μM Leupeptin, and 36 ng/mL synthetic 1-53 Adrenomedullin-Gly as substrate). The final antibody concentrations were 100 μg/mL, respectively. Afterwards, 100 μl of each individual reaction of duplicated samples were combined and transferred into 20 μl of 200 mM EDTA to terminate the amidation reaction and thus to generate a t=0 minutes reaction time-point followed by incubation at 37° C. for 40 minutes. Afterwards the non-terminated reactions were stopped with 10 μl of 200 mM EDTA. To determine the PAM activity in NT-ADM antibody containing samples, bio-ADM was quantified in each reaction using the Sphingotest® bio-ADM immunoassay (Weber et al. 2017, supra). The MR-ADM antibody containing reaction was transferred to an alternative bio-ADM assay (description below). A control reaction without antibodies was measured in both bio-ADM assays. For each sample the difference between t=40 min and t=0 min bio-ADM concentration was calculated. […]
# [1] = Geven et al. 2017; cited from earlier work
# [2] = test system: CLP-induced sepsis in mice; details: pre-treatment, cited from earlier work
substance,measurement,setting,value
"HAM8101: humanized N-terminal anti-ADM antibody, heavy chain SEQ ID No. 35, light chain SEQ ID No. 36",PAM activity compared to the reaction without antibody addition (set at 100%),"recombinant human PAM; 10 μg/mL antibody, 40 minutes, 37° C., 2 mM L-Ascorbate",233%
same,influence on conversion of ADM-Gly to bio-ADM by PAM,"recombinant human PAM; antibody 0-100 μg/mL, FIG. 7",significant accelerating effect
same,change in bio-ADM concentration,native human plasma PAM,No change in bio-ADM concentration
same,influence on amidating activity compared within the tested antibodies of the same region,human native PAM,showed the strongest influence
same,"safety and tolerability, phase I study",[1],no serious adverse events were observed
same,7-day survival,"[2]; repeated dose administration, control 0%",40%
same,7-day survival,"[2]; single dose administration, control 10%",50%
